Measured values as given in ChEMBL document CHEMBL1139429, “2-Thiazolylimino/heteroarylimino-5-arylidene-4-thiazolidinones as new agents with SHP-2 inhibitory action” (J Med Chem, 2008).

Target: T1, Tyrosine-protein phosphatase non-receptor type 11 (Homo sapiens, UniProt Q06124)
T1 sequence (Q06124 whole entry): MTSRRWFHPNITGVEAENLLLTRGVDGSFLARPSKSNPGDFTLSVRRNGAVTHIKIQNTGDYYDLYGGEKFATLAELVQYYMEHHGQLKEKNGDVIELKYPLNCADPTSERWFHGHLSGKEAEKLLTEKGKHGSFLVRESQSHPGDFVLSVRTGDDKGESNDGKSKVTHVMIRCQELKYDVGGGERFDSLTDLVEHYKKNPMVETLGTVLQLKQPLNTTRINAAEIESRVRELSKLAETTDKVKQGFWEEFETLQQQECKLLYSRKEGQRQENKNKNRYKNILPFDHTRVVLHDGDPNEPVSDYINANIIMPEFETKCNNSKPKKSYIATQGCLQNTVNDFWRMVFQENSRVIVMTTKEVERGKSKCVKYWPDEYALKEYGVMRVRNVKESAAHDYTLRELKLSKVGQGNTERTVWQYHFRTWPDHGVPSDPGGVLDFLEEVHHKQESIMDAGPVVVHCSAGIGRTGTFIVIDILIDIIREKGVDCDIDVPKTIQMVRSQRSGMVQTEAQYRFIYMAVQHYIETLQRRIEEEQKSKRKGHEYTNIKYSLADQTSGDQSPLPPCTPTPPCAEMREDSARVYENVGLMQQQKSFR
Assay: Inhibition of human recombinant GST-fused SHP2 using p-nitrophenyl phosphate as substrate

SMILES	Ki [µM]
COc1ccc(/C=C2/S/C(=N/c3nccs3)NC2=O)cc1	11.7
O=C1N/C(=N\c2nccs2)S/C1=C/c1cccc(Cl)c1	1090
O=C1N/C(=N\c2nccs2)S/C1=C/c1ccc([N+](=O)[O-])cc1	474
COc1ccc(/C=C2/S/C(=N\c3nsc4ccccc34)NC2=O)cc1	22.8
COc1cc(/C=C2/S/C(=N/c3nc(C45CC6CC(CC(C6)C4)C5)cs3)NC2=O)ccc1O	12.3
COc1cc(/C=C2/S/C(=N/c3nc4ccccc4s3)NC2=O)cc(OC)c1O	18.1
COc1cc(/C=C2/S/C(=N/c3nc(-c4ccccc4)cs3)NC2=O)ccc1O	103
O=C1N/C(=N\c2nc3ccccc3s2)S/C1=C/c1cccc([N+](=O)[O-])c1	28.7
COc1cc(/C=C2/S/C(=N\c3nsc4ccccc34)NC2=O)ccc1O	90.8
COc1cc(/C=C2/S/C(=N/c3nc4ccc([N+](=O)[O-])cc4s3)NC2=O)cc(OC)c1O	12.9
